Results taken from US20090247520A1, “INHIBITORS OF ANTIGEN RECEPTOR-INDUCED NF-kappa B ACTIVATION” (The Burnham Institute for Medical Research, priority 2008, published 2009).

Tests used:
Type in all cases: cell-based
[1] = system: phosphorylation of CARMA1; assay: PMA-induced CARMA1 phosphorylation in HEK293 cells (immunoblot); settings: CID-2858522 4 μM
Description: FIG. 7. CID-285852 inhibits IKKβ phosphorylation induced by PKC activators. (A) HEK293 cells were cultured in 0.5% FBS medium for 24 h and then treated with CID-2858522 (4 μM) or PKC inhibitor, Bisindolylmaleimide I (1 μM) for 2 hrs followed by PMA/Ionomycin (10 ng/mL; 5 ng/mL) for 2 h. Cell lysates were subjected to immunoprecipitation using anti-CARMA1 antibody and analyzed by immunoblotting with anti-phospho-CARMA1 antibody or anti-CARMA1 antibody. (B-E) HEK293 cells were transfected with plasmids encoding myc-CARMA1 in combination with plasmids encoding various other proteins including Caspase-8 (cys287ala) (B), HA-IKK-γ (C), HA-TAK1 (D), and TRAF6 (E). After 36 h. cells were cultured in 0.5% FBS medium for 12 h and then treated with CID-2858522 (4 μM) or Bisindolylmaleimide I (1 μM) for 2 hrs, followed by PMA/Ionomycin treatment (10 ng/mL; 5 ng/mL) for 2 hrs. Cell lysates were immunoprecipated using anti-myc antibody and analyzed by immunoblotting using anti-Caspase8 (B), anti-HA (C,D), or anti-TRAF6 (E) antibodies. […] Cell lysates were normalized for protein content and analyzed by immunoblotting using anti-FLIP and anti-alpha-tubulin antibodies. […] Cell lysates were immunoprecipitated using anti-IKK-β and analyzed by immunoblotting using anti-phospho-IKK-β antibody or anti-IKK-β antibody (as loading control). […]

[2] = system: TNF-induced NF-κB reporter gene activity; assay: TNF-induced NF-κB reporter counter-screen in HEK293-NFκB-Luc cells; settings: TNF 10 ng/mL; CID-2858522 at concentrations as high as 4 μM
Description: (A) Structures of two hit compounds, CID-2858522 (left) and CID-2998237 (right) are shown; (B, C) 293-NF-κB-luc cells were pretreated for 2 hrs with various concentration of either CID-2858522 (B) or CID-29982387 (C) and then stimulated with TNF (10 ng/mL) or PMA/lonomycin (10 ng/mL; 5 ng/mL) for 16 h. Luciferase activity was measured and data were expressed as a percentage relative to control treatment with DMSO only (mean±SD; n=3). (D) 293-NF-κB-luc cells were pretreated for 2 h with various concentrations of CID-2858522 or CID-2998237, then stimulated with PMA/lonomycin for 16 h. IL-8 release into the medium was measured, expressing data as a percentage relative to control cultures treated with DMSO (mean±SD; n=3). (E) 293-NF-κB-luc cells were pretreated with CID-2858522 and then stimulated with PDBu for 16 h, IL-8 production and NF-κB luciferase activity were measured as above. (F) 293-NF-κB-luc cells were pretreated for 2 h with various concentrations of CID-2858522 or a PKC inhibitor (Bisindolylmaleimide I) at 1 μM followed by PMA/Ionomycin (10 ng/mL) stimulation for 2 h, then p65-DNA-binding activity was measured in nuclear extracts (10 μg protein), expressing data as fold-increase relative to unstimulated cells (mean±SD; n=3).
Counter Screening and Secondary Assays. […] Luciferase activity was measured using Britelite kit (Perkin Elmer). […]

[3] = system: p65-DNA binding activity induced by TNF; assay: NF-κB p65 DNA-binding activity induced by TNF; settings: data not shown
Description: NF-κB DNA-binding activity assays. Nuclear extracts were prepared from 10 cm^2 plates of confluent cells using a kit (Active Motif, Carsbad, Calif.). The total protein content of nuclear fractions was quantified by the Bradford method, followed by storage at −80° C. NF-κB DNA-binding activity was measured in nuclear extracts (10 μg protein) using an immunoassay method (TransAM Kit [Active Motif]) employing 96 well plates coated with double-strand oligodeoxynucleotides containing NF-κB consensus binding site (5′-[…]-3′) and anti-p65 antibody, which was detected by secondary horseradish peroxidase (HRP)-conjugated antibody, using a calorimetric substrate with absorbance read at 450 nm within 5 minutes using a spectrophotometer, SpectraMax M5 (Molecular Devices, Sunnyvale, Calif.).

Cc1cc2nc(NCCCO)n(CC(=O)c3cc(C(C)(C)C)c(O)c(C(C)(C)C)c3)c2cc1C [Compound 1, 2-(2-(3-Hydroxypropylamino)-5,6-dimethyl-1H-benzo[d]imidazol-1-yl)-1-(3,5-di-tert-butyl-4-hydroxyphenyl)ethanone]
effect on PMA-induced phosphorylation of CARMA1 [1]: no effect
inhibition of TNF-induced NF-κB reporter gene activity [2]: did not inhibit
block of p65-DNA binding activity induced by TNF [3]: did not block
